{
  "source": "patent US12698260B2",
  "about": "“Solid state form of centanafadine HCL and process for preparation thereof” (ASSIA CHEMICAL INDUSTRIES LTD., priority 2021, dated 2026)",
  "key": {"[1]": {"test": "Solid-state stability upon storage and processing", "details": "storage and processing (e.g. grinding, pressure, heat, humidity)"}, "[2]": {"test": "Solubility over a range of pH", "details": "over a wide range of pH; comparator not stated"}},
  "data": [
    {"smiles": "c1ccc2cc([C@]34CNC[C@H]3C4)ccc2c1", "note": "[(1R,5S)-1-naphthalen-2-yl-3-azabicyclo[3.1.0]hexane]", "values": [
      {"measurement": "stability of the crystalline form upon storage and processing", "setting": "[1]", "result": "stable crystalline Form upon storage and processing"},
      {"measurement": "solubility", "setting": "[2]", "result": "improved solubility"}
    ]}
  ]
}
